Results as given in publication PMC10137179, “Assessment of Covalently Binding Warhead Compounds in the Validation of the Cytomegalovirus Nuclear Egress Complex as an Antiviral Target” (Cells, 2023).

Columns and labels:
in vitro = assay type: cell-based, human; conditions: human
Method: (§1) Cytotoxicity of the analyzed compounds was determined by the Neutral Red dye uptake assay. A total of 1.35 × 10^5 HFFs per well were seeded in 96-well plates 1 d prior to analysis, cultivated overnight until cells were confluent and then incubated with compounds for 7 days. The assay was performed as described previously using 40 μg/mL Neutral Red (Sigma Aldrich). The quantity of dye incorporation was determined using the Victor X4 microplate reader (PerkinElmer, Waltham, MA, USA) by fluorescence measurement at 560/630 nm for excitation/emission, respectively. To assess antiviral activity of compounds, HFFs seeded in 96-well plates (1.35 × 10^5 HFFs per well) were infected with HCMV AD169-GFP or TB40-IE2-YFP to reach 25–50% infected cells at 7 days post-infection (d p.i.). After incubation with the infectious inoculum for 1.5 h at 37 °C, compounds were added in serial dilutions. At 7 d p.i., cells were fixed for 10 min at room temperature using 10% formalin. Finally, cells were washed once with PBS followed by automated fluorescence quantitation.

HCMV AD169-GFP = experiment: microbe, parasite or virus in culture; assay type: cell-based, human cytomegalovirus (HCMV); conditions: for EC50: Human betaherpesvirus 5, AD169, 168 h
Method: as §1
Seeking for a novel group of potential antiviral agents, small molecules with covalent protein-binding activity were investigated. These small molecules, originally developed as kinase inhibitors, carry a so-called warhead moiety as an important functional group, such as the prototype afatinib (Figure 1A, red circle). In this study, a series of newly generated warhead compounds (most of which are the property of B.K./Lead Discovery Center, Dortmund, Germany) were used for an evaluation of putative antiviral and core NEC-inhibitory properties. In a first step, the antiviral activity of warheads was analyzed against HCMV TB40-IE2-YFP (Figure 1B) and AD169-GFP (Figure 1C). To this end, HFFs were infected with either of the two viral strains before the GFP or YFP reporter signals were measured at 7 d p.i. (in parallel, putative compound cytotoxicity was determined by Neutral Red assay). The HCMVs AD169-GFP and TB40-IE2-YFP, based on BAC-derived recombinants of the laboratory strains AD169 and TB40, respectively, were both propagated on HFFs, and the produced stocks were then used as two reporter viruses for the assessement of antiviral drug activity. While strain AD169 is mainly restricted in its tropism to fibroblasts, TB40 tropism can be extended to fibroblasts and epithelial and endothelial cells. Here, the use of two strains was intended to illustrate the assumption that antiviral activity of these warhead compounds may be directed to conserved viral target proteins, thus pointing out a minor impact of strains.
(A) Chemical structure of a clinically approved prototype of covalently binding warhead inhibitors, […], afatinib/Gilotrif®. The red circle identifies a functionally active α-, β-unsaturated carbonyl group. (B) At 7 d p.i., compounds were analyzed for their cytotoxicity (orange) and antiviral activity (blue) during HCMV infection, using TB40-IE2-YFP as a reporter virus. Cell viability was assessed through Neutral Red staining of uninfected cells. Measurements were performed in quadruplicate (YFP fluorometry) or triplicate (Neutral Red assay), and standard deviations of mean values are given; EC50, CC50 and SI values are indicated accordingly. (C) In a parallel series of analyses, HCMV AD169-GFP was used as another reporter virus representing a second viral strain. […] HCMV AD169-GFP-infected HFFs were treated with 0.1 µM to 50 µM of the compounds (in parallel Neutral Red assay, 0.1 µM to 100 µM), before the signal assessments were performed at 7 d p.i.

[1] = biological target: T1, pUL50–pUL53 interaction (LgBiT::UL53-Flag + SmBiT::UL50-HA) (Human cytomegalovirus, UniProt P16791); assay type: cell-based; conditions: 293T cells, 5×, 1× or 0.2× anti-HCMV EC50 levels, full-length LgBiT::UL53-Flag
T1 construct: expressed in transfected cells; host or cells: 293T

[2] = biological target: T2, pUL50–pUL53 interaction (LgBiT::UL53(1–87)-Flag + SmBiT::UL50-HA) (Human cytomegalovirus, UniProt P16791); assay type: cell-based; conditions: 293T cells, 5×, 1× or 0.2× anti-HCMV EC50 levels, truncated LgBiT::UL53(1–87)-Flag
T2 construct: expressed in transfected cells; host or cells: 293T

[3] = tested on: HCMV pUL53 nuclear rim localization; experiment: Confocal imaging of pUL53 localization in HCMV AD169-infected HFFs; assay type: cell-based; conditions: HFFs infected with HCMV AD169 (MOI 0.1), 5 d p.i.
Method: HFF or HFF-UL50 cells, either Dox-induced or uninduced, were seeded in 6-well plates with a density of 2 × 10^5 cells per well, grown on coverslips and infected with HCMV AD169 or AD169 ∆UL50-ΣUL53. For infection experiments with the recombinant virus, different Shield-1 and Dox conditions were analyzed. Antivirals were added post-infection as described for the experiments. For transfection experiments, HeLa cells were seeded on coverslips in 6-well plates with a density of 3.25 × 10^5 cells per well for cotransfection with the indicated NEC expression plasmids (HSV-1 HA-UL34 + Flag-UL31, HCMV pUL50-HA + pUL53-Flag and EBV HA-BFRF1 + Flag-BFLF2). At indicated time points after virus infection, or 3 days post-transfection, cells were fixed, applied for IF staining as described previously and analyzed using a TCS SP5 confocal laser-scanning microscope with Leica LAS AF software (Leica Microsystems, Wetzlar, Germany). […] The device features a Leica photomultiplier tube (PMT) and a hybrid detector (HyD). Images were further processed using Photoshop CS5 (Adobe Inc., San José, CA, USA). Primary and secondary antibodies used for staining were mAb-UL53.01 (kindly provided by S. Jonjic and T. Lenac Rovis, Rijeka, Croatia), mAb-lamin A/C (ab108595, Abcam, Cambridge, UK), mAb-HA (Clone 7, H9658, Sigma-Aldrich, St. Louis, MO, USA), pAb-Flag (F7425, Sigma-Aldrich, St. Louis, MO, USA), anti-mouse Alexa 555 (A21422, Thermo Fisher Scientific, Waltham, MA, USA) and anti-rabbit Alexa 488 (A11034, Thermo Fisher Scientific, Waltham, MA, USA). Microscopic counting was performed for quantitation of colocalization patterns of two different proteins, as achieved by counting 50 cells per biological triplicate.

[4] = tested on: HFF-UL50, HFFs, MRC-5 and 293T cells; experiment: Neutral Red cytotoxicity of Shield-1 on four cell types; conditions: Shield-1 0.04–10 µM, 4 (293T) or 7 d post-treatment
Method: Analysis of putative cytotoxicity of the synthetic ligand Shield-1 on different cell
types. Four different types of cells (recombinant complementing cells HFF-UL50, primary HFFs and
and MRC-5 cells, and immortalized 293T) were treated with various concentrations of Shield-1
(0.04–10 µM as shown on the right). At 4 (293T) or 7 d post-treatment, cell viability was assessed by
Neutral Red staining. Data are presented as mean values ± SD over three biological replicates.
Cytotoxic staurosporine (STP, 1 µM) served as a positive control, DMSO-treated cells as a negative

HFFs = experiment: in vitro; assay type: cell-based, human; conditions: human, 7 days
Method: as §1

HCMV TB40-IE2-YFP = experiment: microbe, parasite or virus in culture; assay type: cell-based, human cytomegalovirus (HCMV); conditions: Human betaherpesvirus 5, 168 h
Method: Cytotoxicity of the analyzed compounds was determined by the Neutral Red dye uptake assay. A total of 1.35 × 10^5 HFFs per well were seeded in 96-well plates 1 d prior to analysis, cultivated overnight until cells were confluent and then incubated with compounds for 7 days. The assay was performed as described previously using 40 μg/mL Neutral Red (Sigma Aldrich). The quantity of dye incorporation was determined using the Victor X4 microplate reader (PerkinElmer, Waltham, MA, USA) by fluorescence measurement at 560/630 nm for excitation/emission, respectively. […] Finally, cells were washed once with PBS followed by automated fluorescence quantitation.
Seeking for a novel group of potential antiviral agents, small molecules with covalent protein-binding activity were investigated. […] In a first step, the antiviral activity of warheads was analyzed against HCMV TB40-IE2-YFP (Figure 1B) and AD169-GFP (Figure 1C). To this end, HFFs were infected with either of the two viral strains before the GFP or YFP reporter signals were measured at 7 d p.i. (in parallel, putative compound cytotoxicity was determined by Neutral Red assay). […]
(A) Chemical structure of a clinically approved prototype of covalently binding warhead inhibitors, LDC580, afatinib/Gilotrif®. […] Cell viability was assessed through Neutral Red staining of uninfected cells. […]

SmBiT::UL50-HA = biological target: T3, SmBiT::UL50-HA (human cytomegalovirus (HCMV), UniProt P16791 1-397); experiment: split reporter (BiFC, NanoBiT); NanoBiT in 293T cells cotransfected with LgBiT and SmBiT constructs; NanoGlo Live Cell Assay, luminescence at 37 °C; background of LgBiT without SmBiT subtracted; some samples with warhead compounds (LDC compounds, ibrutinib and others); conditions: partners not purified
T3 construct: also called pUL50; HCMV core NEC groove protein; source: 293T cells, transiently transfected (PEI), in live cells
T3 sequence: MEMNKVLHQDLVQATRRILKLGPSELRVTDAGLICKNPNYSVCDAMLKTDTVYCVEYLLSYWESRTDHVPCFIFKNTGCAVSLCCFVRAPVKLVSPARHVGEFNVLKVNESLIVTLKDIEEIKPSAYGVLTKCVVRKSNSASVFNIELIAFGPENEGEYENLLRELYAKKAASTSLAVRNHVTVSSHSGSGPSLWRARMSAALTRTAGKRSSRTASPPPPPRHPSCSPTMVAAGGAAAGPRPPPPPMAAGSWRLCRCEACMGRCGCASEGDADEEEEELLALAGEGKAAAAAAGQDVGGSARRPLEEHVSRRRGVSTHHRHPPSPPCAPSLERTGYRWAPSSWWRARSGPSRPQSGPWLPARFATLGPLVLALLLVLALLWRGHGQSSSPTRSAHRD

[5] = clinically relevant warheads, 0.1 µM to 50 µM, AD169-GFP-infected HFFs, 7 d p.i.

CCN(CC)C(=O)/C(C#N)=C/c1cc(O)c(O)c([N+](=O)[O-])c1 [entacapone]
CC50 at 7 days (in vitro; CC50): 93 ± 4 µM | antiviral activity (in words) (HCMV AD169-GFP; AD169-GFP-infected HFFs, 7 d p.i., 0.1 µM to 50 µM): no notable antiviral activity | EC50 (HCMV AD169-GFP; [5]): > 50 µM | SI (HCMV AD169-GFP; selectivity index CC50/EC50, AD169-GFP, clinically relevant warheads): inactive

C=C1C(=O)O[C@@H]2C[C@@]3(C)CCC[C@H](C)C3=C[C@H]12 [alantolactone]
CC50 at 7 days (in vitro): 23 ± 5 µM | inhibitory effect on NanoBiT interaction signal (in words) [1]: very minor or no effects | EC50 (HCMV AD169-GFP; [5]): 3.2 ± 1.3 µM | inhibitory effect on NanoBiT interaction signal (in words) [2]: very minor or no effects

CC(C)Nc1nc2cc(Cl)c(Cl)cc2n1[C@H]1O[C@@H](CO)[C@H](O)[C@@H]1O [MBV, maribavir]
pUL53 localization (in words) [3]: predominant dot-like structures | intranucleoplasmic coaggregation of lamin A/C (in words) ([3]; called preliminary): also visible

CCOc1cc2ncc(C#N)c(Nc3ccc(OCc4ccccn4)c(Cl)c3)c2cc1NC(=O)/C=C/CN(C)C [neratinib]
CC50 at 7 days (in vitro; CC50): 37 ± 1 µM | EC50 (HCMV AD169-GFP; [5]): 0.3 ± 0.1 µM

CC[C@H](C(=O)N1CCCC[C@H]1C(=O)O[C@H](CCc1ccc(OC)c(OC)c1)c1cccc(OCCN2CCOCC2)c1)c1cc(OC)c(OC)c(OC)c1 [Shield-1]
cytotoxic potential (in words) [4]: low cytotoxic potential

CN(C)C/C=C/C(=O)Nc1cc2c(Nc3ccc(F)c(Cl)c3)ncnc2cc1O[C@H]1CCOC1 [LDC580, afatinib]
CC50 (HFFs): ~9 µM | CC50 at 7 days (in vitro; CC50): > 10 µM | pUL53 localization (in words) [3]: no comparable effect | EC50 (HCMV AD169-GFP; HFFs infected with HCMV AD169-GFP, 7 d p.i., investigational LDC warheads): 0.6 µM | EC50 (HCMV TB40-IE2-YFP): 0.8 µM

B1: LgBiT::UL53(1–87)-Flag (domain or fragment)
chain: MSSVSGVRTPRERRSALRSLLRKRRQRELASKVASTVNGATSANNHGEPPSPADARPRLTLHDLHDIFREHPELELKYLNMMKMAIT
notes: source: 293T cells, transiently transfected (PEI), in live cells
NanoBiT signal strength relative to LgBiT::UL53-Flag + SmBiT::UL50-HA (100%) (SmBiT::UL50-HA): 288%
